Measurements taken from publication PMC5146859, “Phase 1/2 study of pacritinib, a next generation JAK2/FLT3 inhibitor, in myelofibrosis or other myeloid malignancies” (Journal of Hematology & Oncology, 2016).

Tests used:
[1] = tested on: patients with advanced myeloid malignancies; test: Phase 1 dose escalation: dose-limiting toxicities and MTD; format: in vivo
Method: Phase 1 was a 3 + 3 dose-escalation study. Three to six patients were enrolled at each dose level, depending upon observed dose-limiting toxicities (DLTs) in the cohort. Each patient participated in only one cohort. Oral pacritinib was administered to the first cohort at 100 mg once daily (QD) for 25 consecutive days in a 28-day cycle in cycle 1, with 3 days of rest for pharmacokinetic (PK) sampling, followed by continuous 28-day dosing for the remaining cycles. Subsequent cohorts received escalating pacritinib dose levels of 150, 200, 300, 400, 500, and 600 mg QD. All patients at each dose level were observed through the end of the first cycle before the next dose level could begin treatment. […]
The primary objective of phase 1 was to establish the MTD of pacritinib in patients with advanced myeloid malignancies, defined as the highest dose level at which no more than one out of six patients in the cohort experienced a DLT during cycle 1 (25 days) of therapy. […] Clinical benefit rate was assessed as an exploratory endpoint, defined as the proportion of patients who experienced a complete response, partial response, clinical improvement, or stable disease (SD) during the study.

patients with MF = test: Phase 2 spleen response (volume by MRI, length by physical examination); format: in vivo, human; details: phase 2, 400 mg QD
Method: In phase 2, abdominal MRI to assess spleen and liver volume was performed on day 1 of cycles 1, 4, and 7 and then day 1 of every third cycle through cycle 25. Spleen size (length) was also assessed by manual palpation with each scheduled physical examination. The phase 2 study protocol was amended in September 2009 to include the MF Quality of Life and Symptoms Assessment Tool. […] The instrument was administered pre-dose on day 1 of cycles 1, 2, 4, 7, and 10 and then on day 1 of every third cycle through cycle 25.
The primary endpoint of the phase 2 component was the proportion of the efficacy population who achieved a ≥35% reduction in spleen volume from baseline at week 24, as measured by MRI. Spleen response rate was also assessed in terms of a ≥35% reduction in spleen volume by MRI up to week 24 and end of treatment and as a ≥50% reduction in spleen length by physical examination up to week 24 and end of treatment. Duration of response was not analyzed due to limitations in the proportion of responders. An exploratory endpoint was the proportion of patients with a ≥50% reduction in MF Quality of Life and Symptoms Assessment Tool at week 24 compared with baseline.
The planned sample size of 29 patients for the phase 2 component provided 80% power to detect a spleen response rate of ≥30% versus the null hypothesis of a response rate of ≤10%, with α = 0.05 (two-sided). The efficacy-evaluable population included those patients with a baseline and corresponding follow-up value. The safety population included all enrolled patients who received ≥1 dose of pacritinib.

C1=C/COCc2cc(ccc2OCCN2CCCC2)Nc2nccc(n2)-c2cccc(c2)COC/1 [pacritinib, 11-(2-pyrrolidin-1-yl-ethoxy)-14,19-dioxa-5,7,26-triaza-tetracyclo[19.3.1.1(2,6). 1(8,12)]heptacosa-1(25),2(26),3,5,8,10,12(27),16,21,23-decaene]
Recommended phase 2 dose ([1]; human, in vivo): 400 mg QD
Maximum tolerated dose (MTD) ([1]; phase 1, oral): 500 mg QD
Evaluable patients achieving ≥35% spleen volume reduction by MRI (primary endpoint) (patients with MF; at week 24 (4/17)): 23.5%
Patients achieving ≥50% spleen length reduction by physical examination (patients with MF; at week 24 (9/19)): 47.4%
Patients achieving ≥35% spleen volume reduction by MRI (patients with MF; up to end of treatment (7/23)): 30.4%
Patients achieving ≥50% spleen length reduction by physical examination (patients with MF; up to end of treatment (12/31)): 38.7%
